Tests used:
[1] = tested on: Molt-4 cells; experiment: AlamarBlue (resazurin) viability assay; assay type: cell-based
Experimental: Dose-dependent AlamarBlue® (resazurin) viability assays were performed on Molt-4 cells treated with different concentrations of three phytocannabinoids (CBD, CBDV and CF1) at different ratios, as shown in Table 2.
In order to determine the effect of cannabinoids on the reduction of the survival rate of cancer cells, dose-dependent AlamarBlue® (resazurin) viability assays were then performed on Molt-4 cells treated with single cannabinoids or a combination of two cannabinoids at the same concentration as that of the three phytocannabinoids present in the whole extract, as shown in Table 3. Particularly, CF1 alone, or in combination with one additional cannabinoid was examined to determine its capability to induce apoptosis of cancer cells.

[2] = tested on: DBTRG-05MG cells; experiment: Hoechst / Propidium Iodide cell death imaging; assay type: cell-based; conditions: 24 hours; for % of cell death, effect of adding the cannabinoid to CBD: DBTRG-05MG, purified cannabinoids at content of extract 2, 4 and 8 μg/ml, compared with CBD alone
Experimental: The effects of cannabinoids on the survival of tolerant glioblastoma (GBM) cancer cells harboring a NOTCH 4 mutation were examined.
DBTRG-05MG cells were cultured in 96 well plate (1×10^5 cells/well) until confluency and treated with DMSO as control, pure cannabidiol (CBD), and extracts CAN12 and CAN26 with increasing concentrations from 1 to 4 μg/ml (FIG. 2A).
In another experiment, cells were cultured in 96 well plate (1×10^5 cells/well) until confluency and treated for 24 hours with three molecules (CBD, CBDV and CF1) as compared to the whole extract. The treatments were performed using three extract concentrations: 2, 4 and 8 μg/ml (FIG. 2B). After 24 hours, cells were stained with Hoechst and Propidium Iodide (PI) and imaged by IXM micro system (Molecular Devices) in 10× magnification. Live and dead cells were analyzed by MetaXpress® software (Molecular Devices) and presented as percentages of cell death from total cells. The purified phytocannabinoids were diluted to contain the same content as in the extract, then were provided according to the extract concentrations.

| SMILES | inducing cancer cells death ([1]; Molt-4, CF1 alone as a single cannabinoid (1a, 0.62 ng/μl)) | potency among the three cannabinoids (CBD, CBDV, CF1) ([1]; Molt-4, Table 3 compositions) | % of cell death, effect of adding the cannabinoid to CBD [2] | % of cell death ([2]; GBM DBTRG-05MG cells harboring a NOTCH 4 mutation, vs DMSO) |
| --- | --- | --- | --- | --- |
| CCCCCc1cc(O)c(C2C=C(C)CCC2C(C)(C)O)c(O)c1 [CF1, 1,3-benzenediol,2-[(1R,6R)-6-(1-hydroxy-1-methylethyl)-3-methyl-2cyclohexen-1-yl]-5-pentyl] | showed efficacy | most potent | improved the activity of CBD alone |  |
| C=C(C)[C@@H]1CCC(C)=C[C@H]1c1c(O)cc(CCC)cc1O [CBDV, cannabidivarin] |  |  | improved the activity of CBD alone |  |
| C=C(C)[C@@H]1CCC(C)=C[C@H]1c1c(O)cc(CCCCC)cc1O [CBD, cannabidiol] |  |  |  | increased |

Source: patent US12714719B2, “Cannabinoids, pharmaceutical compositions comprising same and uses thereof” (TECHNION RESEARCH AND DEVELOPMENT FOUNDATION LIMITED, priority 2020, dated 2026)
